Patent US9624243B2, “Heterocyclic compounds and methods of their use” (Novartis AG, priority 2012, dated 2017)

Target: AT2 receptor (Homo sapiens (Human), UniProt P50052)
Assay: AT2 Receptor Binding
Conditions: HEK293 AT2 receptor transient cell membranes, [125I]-CGP42112A
Description: 1. Trypsin-EDTA (for Preparation of 100 mL)
• Dissolve trypsin in 2% EDTA and PBS completely; sterilize the solution by passing through a […] membrane filter; store at 4° C.
2. DMEM Medium (for Preparation of 1 L) • The powder was dissolved into 950 mL of distilled water with gentle stirring until the solution becomes clear. • Add. NaHCO3 1.176 g for DMEM medium. • Adjust pH of medium to 0.2˜0.3 below final working pH using 1 M NaOH or 1 M • HCl. Add slowly with stirring. • Dilute to 1 liter with ddH2O. • Sterilize the medium immediately by filtration. • Store at 4° C.
3. TE Buffer • 20 mM Tris-HCl, pH 7.4, • 5 mM EDTA
4. Binding Assay Buffer • 50 mM Hepes, pH 7.4 • 5 mM MgCl2 • 1 mM CaCl2 • 0.2% BSA
5. Wash Buffer • 50 mM Hepes, pH 7.4 Procedures for HEK293AT2 Receptor Transient Cell Transfection • Cells were plated into 150 mm dish at 50% density for transient transfection. Cells were ready for transfection after overnight incubation (the confluence reaches around 80%). • 75 μL Lipofectamine™2000 diluted in 6.25 mL OptiMEM I Reduced Serum Medium, was mixed gently, and incubated at room temperature for 5 minutes. 50 μg expression plasmid DNA diluted in 6.25 mL OptiMEM I Reduced Serum Medium without serum was mixed gently. • After the 5 minute incubation, the diluted DNA was combined with the diluted Lipofectamine™2000 (total volume is 12.5 mL). The mixture was mixed gently and incubated for 30 minutes at room temperature to allow the DNA-Lipofectamine™2000 complexes to form. • The 12.5 mL DNA-Lipofectamine™2000 complexes were added into the 150 mm dish and mixed gently by rocking the dish back and forth. • The cells were incubated at 37° C. with 5% CO2 for 48 hours. Cells were collected and stored frozen at −80° C. Procedures for HEK293AT2 Receptor Cell Membrane Preparation • Frozen HEK293AT2 receptor (transient transfected) cells were homogenized in ice cold TE buffer for 10s. • The homogenate was centrifuged at 25,000 g for 30 minutes. • The pellet was resuspended in ice cold tissue buffer. • Protein concentrations were determined using Bradford assay method with BSA as standard. • The membrane protein was frozen under −80° C. Compound Preparation
Solutions of all compounds were prepared bymicroplate liquid handling equipment such as Janus or Precision 2000. Compounds, dissolved in DMSO were stored in a Freezer. Compounds were prepared from 30 mM in 100% DMSO.
Step 1: Dose Plate Preparation (96 Well Plate)
• Add the 3 μL [30 mM] compound stock to column 1 on the plate. • Add 15 μL of 100% DMSO to column 1. • Add 10.81 μL of 100% DMSO to column 2-12. • Transfer 5 μL from column 1 into column 2 (half log dilution). • Transfer 5 μL from column 2 into column 3 (half log dilution). • Transfer 5 μL from column 3 into column 4 (half log dilution). • Transfer 5 μL from column 4 into column 5 (half log dilution). • Transfer 5 μL from column 5 into column 6 (half log dilution). • Transfer 5 μL from column 6 into column 7 (half log dilution). • Transfer 5 μL from column 7 into column 8 (half log dilution). • Transfer 5 μL from column 8 into column 9 (half log dilution). • Transfer 5 μL from column 9 into column 10 (half log dilution) • Transfer 5 μL from column 10 into column 11 (half log dilution) • Transfer 5 μL from column 11 into column 12 (half log dilution).
All the compounds were diluted using Precision 2000 microplate liquid handling equipment. The top concentration of compound was 5 mM with 100% DMSO.
Step 2: Working Plate Preparation (96 Well Plate)
• Compounds were diluted 50-fold with buffer. • 49 μL buffer was added to the well of 96 well plate. • 1 μL compound solution from dose plate was transferred to the corresponding well of working plate. • The top concentration of compound was 100 μM with 2% DMSO. Step 3: Assay Plate Preparation (96 Well Plate)
15 μL of compound solution was transferred from each well of working plate to the well of assay plate by Janus.

Chain of AT2 receptor (P50052 whole entry, species assumed): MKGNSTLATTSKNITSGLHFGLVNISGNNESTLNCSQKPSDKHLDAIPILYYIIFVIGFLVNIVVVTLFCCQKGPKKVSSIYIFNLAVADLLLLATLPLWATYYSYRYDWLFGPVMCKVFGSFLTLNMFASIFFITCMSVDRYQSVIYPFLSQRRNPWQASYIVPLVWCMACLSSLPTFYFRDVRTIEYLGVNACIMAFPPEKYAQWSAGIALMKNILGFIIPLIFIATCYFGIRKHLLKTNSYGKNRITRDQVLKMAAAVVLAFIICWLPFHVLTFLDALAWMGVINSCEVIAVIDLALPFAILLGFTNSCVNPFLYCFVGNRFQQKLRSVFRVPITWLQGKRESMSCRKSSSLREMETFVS

Row | IC50 [nM] | Structure (SMILES)
1 | 6650 | O=C(O)[C@@H]1C[C@H](OC[C@@H]2C[C@H]2c2ccccc2)CN1C(=O)C(c1ccccc1)c1ccccc1 (mixture of isomers) [Compound 16, (2S,4S)-1-(2,2-diphenylacetyl)-4-(((1R,2R)-2-phenylcyclopropyl)methoxy)pyrrolidine-2-carboxylic acid and (2S,4S)-1-(2,2-diphenylacetyl)-4-(((1S,2S)-2-phenylcyclopropyl)methoxy)pyrrolidine-2-carboxylic acid]
2 | 3970 | O=C(O)[C@@H]1C[C@H](OC[C@@H]2C[C@@H]2c2ccccc2)CN1C(=O)C(c1ccccc1)c1ccccc1 (mixture of isomers) [Compound 17, (2S,4S)-1-(2,2-diphenylacetyl)-4-(((1R,2S)-2-phenylcyclopropyl)methoxy)pyrrolidine-2-carboxylic acid and (2S,4S)-1-(2,2-diphenylacetyl)-4-(((1S,2R)-2-phenylcyclopropyl)methoxy)pyrrolidine-2-carboxylic acid]
3 | 3660 | CN(CCCc1ccccc1)[C@@H]1CN(C(=O)C(c2ccccc2)c2ccccc2)C[C@H]1C(=O)O (mixture of isomers) [Compound 67, (3R,4S)-1-(2,2-diphenylacetyl)-4-(methyl(3-phenylpropyl)amino)pyrrolidine-3-carboxylic acid and (3S,4R)-1-(2,2-diphenylacetyl)-4-(methyl(3-phenylpropyl)amino)pyrrolidine-3-carboxylic acid]
4 | 993 | O=C(O)[C@@H]1[C@@H](OCCCc2ccccc2)CN1C(=O)C(c1ccccc1)c1ccccc1 (mixture of isomers) [Compound 142, (2S,3S)-1-(2,2-diphenylacetyl)-3-(3-phenylpropoxy)-azetidine-2-carboxylic acid and (2R,3R)-1-(2,2-diphenylacetyl)-3-(3-phenylpropoxy)-azetidine-2-carboxylic acid]
5 | 83.3 | O=C(O)[C@@H]1C[C@H](N2CCCC2Cc2ccccc2)CN1C(=O)C(c1ccccc1)c1ccccc1 (single isomer, unassigned) [Compound 61-A, (3′S,5′S)-2-benzyl-V-(2,2-diphenylacetyl)-[1,3′-bipyrrolidine]-5′-carboxylic acid]
6 | 107 | O=C(O)[C@@H]1C[C@H](N2CCCC2Cc2ccccc2)CN1C(=O)C(c1ccccc1)c1ccccc1 (single isomer, unassigned) [Compound 61-B, (3′S,5′S)-2-benzyl-V-(2,2-diphenylacetyl)-[1,3′-bipyrrolidine]-5′-carboxylic acid]
7 | 49.1 | O=C(O)[C@@H]1C[C@H](N2CCCCC2Cc2ccccc2)CN1C(=O)C(c1ccccc1)c1ccccc1 (single isomer, unassigned) [Compound 70-A]
8 | 1340 | O=C(O)[C@@H]1C[C@H](N2CCCCC2Cc2ccccc2)CN1C(=O)C(c1ccccc1)c1ccccc1 (single isomer, unassigned) [Compound 70-B]
9 | 114 | O=C(O)[C@@H]1C[C@H](OCc2ccccc2)CN1C(=O)C(c1ccccc1)c1ccccc1 [Compound 2, (2S,4S)-4-(benzyloxy)-1-(2,2-diphenylacetyl)pyrrolidine-2-carboxylic acid]
10 | 193 | O=C(O)[C@@H]1C[C@@H](OCc2ccccc2)CN1C(=O)C(c1ccccc1)c1ccccc1 [Compound 3, (2S,4R)-4-(benzyloxy)-1-(2,2-diphenylacetyl)pyrrolidine-2-carboxylic acid]
11 | 54.5 | O=C(O)C1Cc2c(OCc3ccccc3)cccc2N1C(=O)C(c1ccccc1)c1ccccc1 (stereo not shown) [Compound 15, 4-(benzyloxy)-1-(2,2-diphenylacetyl)indoline-2-carboxlic acid]
12 | 290 | O=C(O)[C@@H]1C[C@H](N2CCN(c3ccccc3)CC2)CN1C(=O)C(c1ccccc1)c1ccccc1 [Compound 23, (2S,4S)-1-(2,2-diphenylacetyl)-4-(4-phenylpiperazine)pyrrolidine-2-carboxylic acid]
13 | 540 | O=C(O)[C@@H]1C[C@H](Oc2ccccc2Oc2ccccc2)CN1C(=O)C(c1ccccc1)c1ccccc1 [Compound 35, (2S,4S)-1-(2,2-diphenylacetyl)-4-(2-phenoxyphenoxy)-pyrrolidine-2-carboxylic acid]
14 | 1660 | O=C(O)[C@@H]1C[C@H](OCC#Cc2ccccc2)CN1C(=O)C(c1ccccc1)c1ccccc1 [Compound 36, (2S,4S)-1-(2,2-diphenylacetyl)-4-((3-phenylprop-2-yn-1-yl)-oxy)pyrrolidine-2-carboxylic acid]
15 | 2260 | O=C(O)[C@@H]1C[C@H](NCCc2ccccc2)CN1C(=O)C(c1ccccc1)c1ccccc1 [Compound 46, (2S,4S)-1-(2,2-diphenylacetyl)-4-(phenethylamino)-pyrrolidine-2-carboxylic acid]
16 | 89.4 | O=C(O)[C@@H]1C[C@H](N2CCC[C@@H](c3ccccc3)C2)CN1C(=O)C(c1ccccc1)c1ccccc1 [Compound 48, (2S,4S)-1-(2,2-diphenylacetyl)-4-((S)-3-phenylpiperidine-1-yl)pyrrolidine-2-carboxylic acid]
17 | 58.8 | O=C(O)[C@@H]1C[C@H](N2CCC[C@H](c3ccccc3)C2)CN1C(=O)C(c1ccccc1)c1ccccc1 [Compound 49, (2S,4S)-1-(2,2-diphenylacetyl)-4-((R)-3-phenylpiperidin-1-yl)pyrrolidine-2-carboxylic acid]
18 | 43.9 | O=C(O)[C@@H]1C[C@H](N2CCCC(Cc3ccccc3)C2)CN1C(=O)C(c1ccccc1)c1ccccc1 (stereo partly drawn) [Compound 53, (2S,4S)-4-(3-benzylpiperidin-1-yl)-1-(2,2-diphenylacetyl)-pyrrolidine-2-carboxylic acid]
19 | 155 | O=C(O)[C@@H]1C[C@H](COCc2ccccc2)CN1C(=O)C(c1ccccc1)c1ccccc1 [Compound 54]
20 | 386 | O=C(O)[C@@H]1C[C@H](CCOCc2ccccc2)CN1C(=O)C(c1ccccc1)c1ccccc1 [Compound 55, (2S,4R)-4-(2-(benzyloxy)ethyl)-1-(2,2-diphenylacetyl)-pyrrolidine-2-carboxylic acid]
21 | 315 | O=C(O)[C@@H]1C[C@H](c2ncc(-c3ccccc3)o2)CN1C(=O)C(c1ccccc1)c1ccccc1 [Compound 56]
22 | 3050 | O=C(O)[C@@H]1C[C@H](CS(=O)(=O)CCc2ccccc2)CN1C(=O)C(c1ccccc1)c1ccccc1 [Compound 58, (2S,S)-1-(2,2-diphenylacetyl)-4-((phenethylsulfonyl)methyl)pyrrolidine-2-carboxylic acid]
23 | 540 | CN(CCCc1ccccc1)[C@H]1C[C@@H](C(=O)O)N(C(=O)C(c2ccccc2)C2CCCCC2)C1 (stereo partly drawn) [Compound 62, (2S,4S)-1-(2-cyclohexyl-2-phenylacetyl)-4-(methyl(3-phenylpropyl)amino)pyrrolidine-2-carboxylic acid]

Row | Structure (SMILES) | IC50 [nM]
24 | O=C(O)[C@H]1[C@H](OCCCc2ccccc2)CN1C(=O)C(c1ccccc1)c1ccccc1 (mixture of isomers) [Compound 143, (2R,3R)-3-(3-phenylpropoxy)-1-(2,2-diphenylacetyl)-azetidine-2-carboxylic acid and (2S,3S)-3-(3-phenylpropoxy)-1-(2,2-diphenylacetyl)-azetidine-2-carboxylic acid] | 372
25 | CN(C)S(=O)(=O)NC(=O)[C@@H]1C[C@H](OCCCc2ccccc2)CN1C(=O)C(c1ccccc1)c1ccccc1 [Compound 50] | 67.3
